{
  "source": "patent US5798382A",
  "about": "“2,3-dihydrobenzofuran derivatives, method for producing the same, and use thereof” (Asahi Kasei Kogyo Kabushiki Kaisha, priority 1994, dated 1998)",
  "key": {"[1]": {"system": "Suncus murinus", "assay": "Activities against emesis: acceleration-stimulus induced emesis in suncus", "assay_type": "in vivo", "conditions": "stimulus (4 cm, 1 Hz) 30 minutes after, 4 suncus, hydrochloride salt, physiological saline 0.55", "from_the_text": "The activities of individual compounds against emesis were examined using Suncus murinus. Suncus murinus is a small animal belonging to the Soricidae family. It has been known that suncus is likely to suffer from motion sickness and is susceptible to occurrence of emesis [see \"Seitai-no-kagaku (Science of living body)\", 42, 538 (1990)]. Suncus is likely to show symptoms like the symptoms of human motion sickness under the stimulus of simple acceleration, finally leading to the occurrence of emesis. It has been known that a drug, such as cisplatin, has an emesis-inducing activity.\nIn this test, test compounds were individually administered intraperitoneally to suncus. 30 minutes after the administration, acceleration-stimulus (amplitude: 4 cm; frequency; 1 Hz) was given to the suncus, and the suncus thus treated was observed as to whether emesis occurred or not.\nEach of the compounds (1) used in the above tests was tested in the form of a hydrochloride salt thereof, and represented in Table 3 by the compound number used in Examples described below."}, "[2]": {"molecular_target": "adrenaline α1 receptor", "assay": "Affinity for adrenaline α1 receptor: inhibition of 3H-Prazosin binding to rat cerebral cortex membrane fraction", "set-up": "species or system rat (male SD strain)", "conditions": "for Ki: 3H-Prazosin, rat cerebral cortex membrane, 25° C. 30 min, tested as hydrochloride salt", "method": "A male SD strain rat (7-week old; Charles River) was decapitated, and brain was taken out therefrom quickly. Cerebral cortex of the rat was separated and extracted at […] under ice cooling. The extracted cerebral cortex was frozen at -80° C. for 24 hours or longer. This frozen system was gradually thawed under ice cooling and then, 50 mM Tris-HCl buffer (pH 7.4) was added to the brain under ice cooling to obtain a suspension. The resultant suspension was homogenized, and then subjected to centrifugation at 48,000 g for 15 minutes, to thereby obtain a precipitate. The precipitate thus obtained was washed twice and resuspended in the same Tris-HCl buffer as used above. […] The total volume amount of the reaction mixture was 1 ml. The resultant reaction mixture was subjected to suction filtration using a Whatman GF/C filter, and the filter was washed three times in 50 mM Tris-HCl buffer (pH 7.4, 4 ml), transferred to a vial and then, the radioactivity of Prazosin absorbed on the filter was determined using a liquid scintillation counter. […] On the other hand, substantially the same procedure as mentioned above was repeated, except that 100 nM (final concentration) Prazosin was added to the ^3 H-Prazosin and ascorbic acid. The radioactivity of ^3 H-Prazosin adsorbed on the filter was determined in the same manner as mentioned above. […] Further, substantially the same procedure as mentioned above was repeated, except that, instead of Prazosin, a test compound was used in a predetermined concentration. The radioactivity of ^3 H-Prazosin adsorbed on the filter was determined in the same manner as mentioned above. […] The binding inhibition ratios were plotted, taking the logarithmic value of the concentration of the test compound as the abscissa value, and the binding inhibition ratio as the ordinate value. Then, a curve was drawn by the non-linear least square method."}},
  "data": [
    {"smiles": "O=S(=O)(NCCCCNCC1Cc2ccccc2O1)c1cccc2ccccc12", "note": "(centres unmarked) [Compound 114B, 2-{N-[4-(1-naphthylsulfonylamino)butyl]}aminomethyl-2,3-dihydrobenzo[b]furan]", "values": [
      {"measurement": "Time for occurrence of emesis", "setting": "[1]; 1 mg/kg intraperitoneally", "value": 3.50, "unit": "min. sec"},
      {"measurement": "Ki", "setting": "[2]", "value": 96, "unit": "nM"}
    ]},
    {"smiles": "O=C(NCCCNCC1Cc2ccccc2O1)c1cccc2ccccc12", "note": "(centres unmarked) [Compound 113B, 2-{N-[3-(1-naphthoylamino)propyl]}aminomethyl-2,3-dihydrobenzo[b]furan]", "values": [
      {"measurement": "Time for occurrence of emesis", "setting": "[1]; 1 mg/kg intraperitoneally", "value": 7.44, "unit": "min. sec"},
      {"measurement": "Ki", "setting": "[2]", "value": 95, "unit": "nM"}
    ]},
    {"smiles": "CN(CCCCNC(=O)c1cccs1)CC1Cc2ccccc2O1", "note": "(single isomer, unassigned; (-)) [Compound 116A, (-)-2-{N-methyl-N-[4-(2-thienylcarbonylamino)butyl]}aminomethyl-2,3-dihydrobenzo[b]furan]", "values": [
      {"measurement": "Ki", "setting": "[2]", "value": 530, "unit": "nM"}
    ]},
    {"smiles": "O=C(NCCCCNCC1Cc2ccccc2O1)c1ccco1", "note": "(centres unmarked) [Compound 108B, 2-{N-[4-(2-furylcarbonylamino)butyl]}aminomethyl-2,3-dihydrobenzo[b]furan]", "values": [
      {"measurement": "Time for occurrence of emesis", "setting": "[1]; 1 mg/kg intraperitoneally", "value": 4.56, "unit": "min. sec"}
    ]},
    {"smiles": "O=C(NCCCCNCC1Cc2ccccc2O1)c1ccc2ccccc2c1", "note": "(centres unmarked) [Compound 102B, 2-{N-[4-(2-naphthoylamino)butyl]}aminomethyl-2,3-dihydrobenzo[b]furan]", "values": [
      {"measurement": "Ki", "setting": "[2]", "value": 140, "unit": "nM"}
    ]},
    {"smiles": "O=C(NCCCCNCC1Cc2ccccc2O1)c1cccc2ccccc12", "note": "(centres unmarked) [Compound 101B, 2-{N-[4-(1-naphthoylamino)butyl]}aminomethyl-2,3-dihydrobenzo[b]furan]", "values": [
      {"measurement": "Ki", "setting": "[2]", "value": 150, "unit": "nM"}
    ]},
    {"smiles": "O=C(NCCCCNCC1Cc2ccccc2O1)c1cccs1", "note": "(centres unmarked) [Compound 106B, 2-{N-[4-(2-thienylcarbonylamino)butyl]}aminomethyl-2,3-dihydrobenzo[b]furan]", "values": [
      {"measurement": "Time for occurrence of emesis", "setting": "[1]; 1 mg/kg intraperitoneally", "value": 8.50, "unit": "min. sec"},
      {"measurement": "Ki", "setting": "[2]", "value": 240, "unit": "nM"}
    ]},
    {"smiles": "O=C(NCCNCC1Cc2ccccc2O1)c1cccc2ccccc12", "note": "(centres unmarked) [Compound 112B, 2-{N-[2-(1-naphthoylamino)ethyl]}aminomethyl-2,3-dihydrobenzo[b]furan]", "values": [
      {"measurement": "Time for occurrence of emesis", "setting": "[1]; 3 mg/kg intraperitoneally", "value": 6.03, "unit": "min. sec"},
      {"measurement": "Ki", "setting": "[2]", "value": 320, "unit": "nM"}
    ]},
    {"smiles": "O=C(NCCCCNCC1Cc2ccccc2O1)c1cccs1", "note": "(single isomer, unassigned; (-)) [Compound 111A, (-)-2-{N-[4-(2-thienylcarbonylamino)butyl]}aminomethyl-2,3-dihydrobenzo-[b]furan]", "values": [
      {"measurement": "Ki", "setting": "[2]", "value": 160, "unit": "nM"}
    ]},
    {"smiles": "O=S(=O)(NCCCCNCC1Cc2ccccc2O1)c1ccc2ccccc2c1", "note": "(centres unmarked) [Compound 115B, 2-{N-[4-(2-naphthylsulfonylamino)butyl]}aminomethyl-2,3-dihydrobenzo[b]furan]", "values": [
      {"measurement": "Time for occurrence of emesis", "setting": "[1]; 1 mg/kg intraperitoneally", "value": 5.56, "unit": "min. sec"}
    ]},
    {"smiles": "O=C(NCCCCNCC1Cc2ccccc2O1)c1ccsc1", "note": "(centres unmarked) [Compound 107B, 2-{N-[4-(3-thienylcarbonylamino)butyl]}aminomethyl-2,3-dihydrobenzo[b]furan]", "values": [
      {"measurement": "Ki", "setting": "[2]", "value": 230, "unit": "nM"}
    ]},
    {"smiles": "COc1cc2nc(N3CCN(C(=O)c4ccco4)CC3)nc(N)c2cc1OC", "note": "[^3 H-Prazosin, reference compound]", "values": [
      {"measurement": "Kd", "setting": "[2]; radioactive ligand, used in Ki calculation", "value": 0.133, "unit": "nM"}
    ]},
    {"smiles": "CCN(CCCCNC(=O)c1cccs1)CC1Cc2ccccc2O1", "note": "(single isomer, unassigned; (-)) [Compound 117A, (-)-2-{N-ethyl-N-[4-(2-thienylcarbonylamino)butyl]}aminomethyl-2,3-dihydrobenzo[b]furan]", "values": [
      {"measurement": "Ki", "setting": "[2]", "value": 580, "unit": "nM"}
    ]}
  ]
}
